Legend:
INS-1 cells [1] = experiment: Transmembrane potential assay by DiBAC4(3) staining; type: cell-based, rat; settings: 30 min in staining buffer with 5 μM DiBAC4(3), valinomycin 100 nM, gramicidin 100 nM, KCl 140 mM, FIG. 8A
Description: The transmembrane potential (TMP) was estimated using DiBAC4(3) staining as previously described. For these studies, INS-1 cells were grown to 95% confluency in 6-well plates. The medium was aspirated, replaced with 3 mL fresh complete medium per well, and subjected to mock stimulation or ACBPS (10 Hz, (2.5 ms)/(2.5 ms) pulse duration, 25 V magnitude) for 30 min. Immediately following the stimulation period, the medium was aspirated from each well and replaced with 2 mL per well staining buffer (20 mM HEPES, 120 mM NaCl, 2 mM KCl, 2 mM CaCl2), 1 mM MgCl2, and 5 mM glucose [pH 7.4]) containing 5 μM DiBAC4(3) with DMSO (mock and ACBPS), valinomycin (100 nM), gramicidin (100 nM) or KCl (140 mM). The cells were allowed to incubate in staining buffer at 37° C. for 30 min. Thereafter, the fluorescence intensity of DiBAC4(3) stained INS-1 cells (Ex 490 nm/Em 516 nm) was measured using a BioTek Synergy H1 plate reader programmed to acquire 49 (7×7) individual measurements per well.

INS-1 cells [2] = type: cell-based, rat; settings: FIG. 5A/5B; for ACBPS-induced insulin release: ACBPS 10 Hz, 25 V; for basal insulin release: mock stimulation
Description: A rat insulinoma cell line INS-1 was obtained and were grown in 6-well polystyrene culture plates as attached monolayers in RPMI1640 culture medium supplemented with 10% fetal bovine serum, 10 mM HEPES, 1 mM sodium pyruvate, 2 mM L-glutamine, 0.05 mM 2-mercaptoethanol, 100 IU/mL penicillin and 100 μg/mL streptomycin (i.e., complete medium). Cells were maintained and experiments were conducted in a humidified atmosphere of 5% CO2 in air at 37° C. Select studies were carried out in glucose-free RPMI1640 culture medium supplemented with reagents as described above. In these experiments, the regular medium was exchanged for glucose-free medium 16 hours prior to the electrical stimulation experiment.
ACBPS was applied to cells using a C-Pace EP cell culture stimulator in combination with a C-dish electrode array for a 6-well plate. Control cells were mock stimulated using an identical 6-well C-dish electrode array that was not connected to the stimulator. Unless otherwise stated, the biphasic stimulation parameters were anodal followed by cathodal at 10 Hz (frequency), 5 milliseconds (ms) (total pulse duration), and 25 V (pulse magnitude).
Insulin release from INS-1 cells into the culture medium was determined by ELISA (Rat Insulin ELISA Kit) per the manufacturer's instructions. For these studies, cells were grown to approximately 95% confluency in 6-well plates containing 3 mL complete medium/well. 16 hours before stimulation, the medium was replaced with 3 mL fresh complete medium. Immediately prior to stimulation, the medium was aspirated, the cells were washed twice with 2 mL phosphate buffered saline (PBS), and then 3 mL fresh complete medium was added to each well. Cells were subjected to ACBPS (10 Hz, (2.5 ms)/(2.5 ms) pulse duration (i.e. anodal duration/cathodal duration), 10-25 V magnitude) or mock stimulation for the indicated times. At the end of the stimulation periods, a 0.5 mL sample of medium was removed from each well and stored frozen at −70° C. for later analysis. In some studies, cells were grown for 16 hours in glucose-free medium prior to stimulation. To examine a role for electrolysis products in promoting insulin release, an additional series of experiments were conducted that involved the application of ACBPS (10 Hz, (2.5 ms)/(2.5 ms) pulse duration, 25 V magnitude) or no stimulation (mock) for 30 min to 6-well plates containing only complete medium (3 mL per well) (i.e., no cells). At the end of the stimulation period, the “pre-stimulated” medium was transferred to cells that had been washed twice with PBS (as above). The cells were allowed to incubate with the pre-stimulated medium for 30 min, after which a 0.5 mL sample of medium was removed from each well and stored frozen at −70° C. for latter analysis. The insulin concentration of the culture medium was measured by colorimetric ELISA using 2 μL of the culture medium as described by the manufacturer. Culture medium samples and insulin standards were allowed to bind for 16 hours at 4° C.

CC(C)[C@@H]1NC(=O)[C@H](C)OC(=O)[C@@H](C(C)C)NC(=O)[C@@H](C(C)C)OC(=O)[C@H](C(C)C)NC(=O)[C@H](C)OC(=O)[C@@H](C(C)C)NC(=O)[C@@H](C(C)C)OC(=O)[C@H](C(C)C)NC(=O)[C@H](C)OC(=O)[C@@H](C(C)C)NC(=O)[C@@H](C(C)C)OC1=O [valinomycin]
DiBAC4(3) fluorescence (INS-1 cells [1]): decrease

Antimycin A
ACBPS-induced insulin release (INS-1 cells [2]): inhibited | basal insulin release (INS-1 cells [2]): inhibited

CC[C@@H]1/C=C/C=C/C[C@H](C)[C@H](O)[C@](C)(O)C(=O)[C@H](C)[C@@H](O)[C@H](C)C(=O)[C@H](C)[C@@H](O)[C@H](C)/C=C/C(=O)O[C@H]2[C@@H](C)[C@@H](CC1)O[C@@]1(CC[C@@H](C)[C@@H](C[C@H](C)O)O1)[C@@H]2C [oligomycin A]
ACBPS-induced insulin release (INS-1 cells [2]): inhibited | basal insulin release (INS-1 cells [2]): inhibited

gramicidin A
DiBAC4(3) fluorescence (INS-1 cells [1]): increased

[Cl-].[K+] [KCl]
DiBAC4(3) fluorescence (INS-1 cells [1]): increased

COc1ccc(CCN(C)CCCC(C#N)(c2ccc(OC)c(OC)c2)C(C)C)cc1OC (centres unmarked) [verapamil]
basal insulin release (INS-1 cells [2]): inhibited
